According to ChEMBL document CHEMBL1201862, “PubChem BioAssay data set” (2004):
Calls of active or inactive are those of the source.

How the values were obtained:
Format in all cases: functional
[1] = target: T1, Sentrin-specific protease 8 (Homo sapiens, UniProt Q96LD8);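 note: luminescence read-out of SENP8 inhibition, dose-response confirmation following an ultra-high-throughput screen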
T1 sequence (Q96LD8 whole entry): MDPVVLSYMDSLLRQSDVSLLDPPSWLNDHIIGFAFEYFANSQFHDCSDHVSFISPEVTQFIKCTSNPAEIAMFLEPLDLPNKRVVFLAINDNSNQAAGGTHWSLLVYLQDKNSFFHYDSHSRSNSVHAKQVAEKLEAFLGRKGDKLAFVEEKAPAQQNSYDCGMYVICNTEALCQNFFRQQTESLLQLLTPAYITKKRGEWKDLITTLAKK

Caspase-3 = target: T2, Caspase-3 (Homo sapiens, UniProt P42574);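 note: Dose-response selectivity test against caspase-3 for candidate inhibitors of sentrin-specific proteases (SENPs)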
T2 sequence (P42574 whole entry): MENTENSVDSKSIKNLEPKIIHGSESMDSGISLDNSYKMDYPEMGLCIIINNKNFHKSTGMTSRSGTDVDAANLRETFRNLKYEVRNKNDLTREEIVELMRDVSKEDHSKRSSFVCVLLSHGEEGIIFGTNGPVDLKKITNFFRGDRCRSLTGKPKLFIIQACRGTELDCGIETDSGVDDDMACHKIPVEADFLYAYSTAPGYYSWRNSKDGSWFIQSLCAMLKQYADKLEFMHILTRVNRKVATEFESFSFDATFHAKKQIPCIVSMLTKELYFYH

[2] = target: T3, Sentrin-specific protease 6 (Homo sapiens, UniProt Q9GZR1);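 note: Luminescence-based dose-response confirmatory assay of SENP6 inhibition, following up an ultra-high-throughput screen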
T3 sequence (Q9GZR1 whole entry): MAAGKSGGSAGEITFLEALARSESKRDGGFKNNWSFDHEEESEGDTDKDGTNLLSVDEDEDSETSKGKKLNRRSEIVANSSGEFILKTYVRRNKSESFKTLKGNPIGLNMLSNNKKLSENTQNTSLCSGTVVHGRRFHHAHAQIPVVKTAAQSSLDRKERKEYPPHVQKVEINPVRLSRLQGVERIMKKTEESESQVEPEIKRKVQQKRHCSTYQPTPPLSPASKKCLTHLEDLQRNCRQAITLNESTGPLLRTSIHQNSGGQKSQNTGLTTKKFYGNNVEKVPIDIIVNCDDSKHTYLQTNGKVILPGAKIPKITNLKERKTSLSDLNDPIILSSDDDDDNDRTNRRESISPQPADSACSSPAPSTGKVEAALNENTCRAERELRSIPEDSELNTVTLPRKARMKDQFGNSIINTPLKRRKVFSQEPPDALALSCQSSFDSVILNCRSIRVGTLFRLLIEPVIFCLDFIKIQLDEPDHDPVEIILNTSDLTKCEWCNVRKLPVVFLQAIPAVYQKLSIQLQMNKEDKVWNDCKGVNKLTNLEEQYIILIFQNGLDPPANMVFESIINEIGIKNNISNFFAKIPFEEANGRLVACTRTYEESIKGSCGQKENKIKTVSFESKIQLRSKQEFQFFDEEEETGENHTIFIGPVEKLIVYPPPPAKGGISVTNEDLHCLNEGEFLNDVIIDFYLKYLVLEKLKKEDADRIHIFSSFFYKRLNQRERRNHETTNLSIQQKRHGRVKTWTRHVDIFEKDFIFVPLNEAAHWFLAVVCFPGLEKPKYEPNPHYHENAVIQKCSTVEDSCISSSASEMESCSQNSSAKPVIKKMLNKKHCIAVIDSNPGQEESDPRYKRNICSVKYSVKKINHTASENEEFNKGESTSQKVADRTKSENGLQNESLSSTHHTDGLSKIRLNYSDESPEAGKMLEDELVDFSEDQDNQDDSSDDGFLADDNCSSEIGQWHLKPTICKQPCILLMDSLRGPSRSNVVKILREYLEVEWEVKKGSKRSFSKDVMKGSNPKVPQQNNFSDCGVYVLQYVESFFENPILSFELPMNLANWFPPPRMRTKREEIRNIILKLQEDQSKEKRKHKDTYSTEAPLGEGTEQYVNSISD

[3] = target: T4, Sentrin-specific protease 7 (Homo sapiens, UniProt Q9BQF6);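 note: Luminescence-based dose-response confirmation of ultra-high-throughput screening hits, measuring inhibition of SENP7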
T4 sequence (Q9BQF6 whole entry): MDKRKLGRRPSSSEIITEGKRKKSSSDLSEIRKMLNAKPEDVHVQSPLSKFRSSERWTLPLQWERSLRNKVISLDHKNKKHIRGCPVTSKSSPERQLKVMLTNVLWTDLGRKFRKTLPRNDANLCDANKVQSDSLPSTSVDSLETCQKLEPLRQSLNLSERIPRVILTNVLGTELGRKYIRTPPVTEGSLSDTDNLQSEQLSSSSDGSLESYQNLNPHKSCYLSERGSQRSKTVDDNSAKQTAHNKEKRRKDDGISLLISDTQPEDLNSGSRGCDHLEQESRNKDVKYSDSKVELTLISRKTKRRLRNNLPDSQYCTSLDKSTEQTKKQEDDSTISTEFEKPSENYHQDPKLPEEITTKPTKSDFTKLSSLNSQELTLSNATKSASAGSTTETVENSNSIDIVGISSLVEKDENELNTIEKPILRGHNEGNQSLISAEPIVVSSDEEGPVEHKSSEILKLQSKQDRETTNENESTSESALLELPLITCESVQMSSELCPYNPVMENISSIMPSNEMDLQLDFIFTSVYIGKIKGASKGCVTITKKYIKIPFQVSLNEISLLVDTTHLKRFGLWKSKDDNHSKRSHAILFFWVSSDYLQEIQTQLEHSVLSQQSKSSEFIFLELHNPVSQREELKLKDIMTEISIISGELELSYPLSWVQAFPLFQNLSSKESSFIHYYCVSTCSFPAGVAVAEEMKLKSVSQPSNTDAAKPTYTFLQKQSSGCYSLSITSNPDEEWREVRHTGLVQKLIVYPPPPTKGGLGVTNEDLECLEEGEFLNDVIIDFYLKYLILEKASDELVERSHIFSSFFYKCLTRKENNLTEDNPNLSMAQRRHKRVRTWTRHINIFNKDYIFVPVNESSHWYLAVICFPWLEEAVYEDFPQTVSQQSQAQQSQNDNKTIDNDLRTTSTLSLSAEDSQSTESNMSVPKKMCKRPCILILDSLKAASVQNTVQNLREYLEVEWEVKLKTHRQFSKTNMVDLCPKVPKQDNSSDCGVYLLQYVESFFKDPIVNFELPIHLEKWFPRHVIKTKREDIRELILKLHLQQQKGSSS

[4] = target: MAP kinase-activated protein kinase 3 (Homo sapiens, UniProt Q16644);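 note: value comes from a kinome-wide profiling panel in which MAPKAPK3 is one of the panel members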
[5] = target: Serine/threonine-protein kinase N2 (Homo sapiens, UniProt Q16513)
[6] = target: Tyrosine-protein kinase Lyn (Homo sapiens, UniProt P07948);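 note: lyn as one member of a kinase panel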
[7] = target: Serine/threonine-protein kinase pim-1 (Homo sapiens, UniProt P11309)
[8] = target: STE20-like serine/threonine-protein kinase (Homo sapiens, UniProt Q9H2G2)
[9] = target: Serine/threonine-protein kinase 17A (Homo sapiens, UniProt Q9UEE5)
Chain of Serine/threonine-protein kinase 17A (Q9UEE5 whole entry): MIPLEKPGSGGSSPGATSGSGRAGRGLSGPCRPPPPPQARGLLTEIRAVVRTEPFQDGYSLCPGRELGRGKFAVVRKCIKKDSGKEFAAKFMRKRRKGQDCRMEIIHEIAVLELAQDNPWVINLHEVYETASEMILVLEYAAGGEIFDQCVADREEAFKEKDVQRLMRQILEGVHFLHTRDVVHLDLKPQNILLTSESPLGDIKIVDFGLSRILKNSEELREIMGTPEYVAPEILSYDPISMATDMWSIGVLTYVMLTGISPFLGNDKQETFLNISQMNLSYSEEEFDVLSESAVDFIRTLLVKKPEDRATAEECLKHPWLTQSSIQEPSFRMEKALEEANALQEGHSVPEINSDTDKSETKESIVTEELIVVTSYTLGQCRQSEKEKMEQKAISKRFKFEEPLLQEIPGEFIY

Chain of STE20-like serine/threonine-protein kinase (Q9H2G2 whole entry): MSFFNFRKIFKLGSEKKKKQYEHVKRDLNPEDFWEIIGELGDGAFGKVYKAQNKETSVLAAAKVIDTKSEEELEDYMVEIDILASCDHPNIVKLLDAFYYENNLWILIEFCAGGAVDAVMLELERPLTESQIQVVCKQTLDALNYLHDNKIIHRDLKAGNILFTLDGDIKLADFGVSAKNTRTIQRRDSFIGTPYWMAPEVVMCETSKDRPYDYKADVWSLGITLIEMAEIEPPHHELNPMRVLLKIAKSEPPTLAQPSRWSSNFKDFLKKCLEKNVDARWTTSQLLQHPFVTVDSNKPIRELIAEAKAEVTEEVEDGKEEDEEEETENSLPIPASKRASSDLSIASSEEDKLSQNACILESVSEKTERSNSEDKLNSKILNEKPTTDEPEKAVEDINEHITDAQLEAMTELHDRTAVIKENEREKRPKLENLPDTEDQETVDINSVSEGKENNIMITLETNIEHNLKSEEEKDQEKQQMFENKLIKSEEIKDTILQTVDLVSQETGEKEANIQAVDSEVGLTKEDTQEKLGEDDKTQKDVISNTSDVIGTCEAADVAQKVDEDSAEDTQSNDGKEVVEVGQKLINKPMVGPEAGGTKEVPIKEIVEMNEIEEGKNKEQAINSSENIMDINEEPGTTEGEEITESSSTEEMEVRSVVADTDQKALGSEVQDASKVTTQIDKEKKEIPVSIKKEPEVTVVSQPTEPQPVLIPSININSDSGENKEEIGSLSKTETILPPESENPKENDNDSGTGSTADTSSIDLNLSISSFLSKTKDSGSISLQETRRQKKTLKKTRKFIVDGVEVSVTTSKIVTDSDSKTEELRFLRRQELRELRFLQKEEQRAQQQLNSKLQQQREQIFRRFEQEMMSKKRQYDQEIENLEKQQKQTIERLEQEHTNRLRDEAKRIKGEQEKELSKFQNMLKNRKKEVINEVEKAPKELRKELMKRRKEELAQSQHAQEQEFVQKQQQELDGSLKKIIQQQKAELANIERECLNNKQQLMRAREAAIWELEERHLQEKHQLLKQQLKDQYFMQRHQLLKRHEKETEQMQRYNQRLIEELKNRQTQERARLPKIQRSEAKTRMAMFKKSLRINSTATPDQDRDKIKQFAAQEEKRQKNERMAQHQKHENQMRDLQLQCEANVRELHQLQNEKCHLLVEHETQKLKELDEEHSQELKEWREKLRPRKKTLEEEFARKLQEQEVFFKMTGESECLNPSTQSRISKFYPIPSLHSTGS
Chain of MAP kinase-activated protein kinase 3 (Q16644 whole entry): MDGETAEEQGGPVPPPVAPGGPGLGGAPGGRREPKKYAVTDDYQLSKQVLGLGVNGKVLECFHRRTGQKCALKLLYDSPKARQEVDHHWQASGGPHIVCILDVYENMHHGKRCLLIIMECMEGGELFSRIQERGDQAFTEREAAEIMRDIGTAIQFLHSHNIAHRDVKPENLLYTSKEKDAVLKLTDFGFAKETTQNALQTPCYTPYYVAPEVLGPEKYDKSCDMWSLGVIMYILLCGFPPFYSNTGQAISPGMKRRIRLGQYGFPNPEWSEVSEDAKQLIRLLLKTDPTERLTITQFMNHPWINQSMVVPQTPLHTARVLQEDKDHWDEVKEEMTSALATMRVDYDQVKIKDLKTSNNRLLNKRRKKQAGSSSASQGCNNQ
Chain of Tyrosine-protein kinase Lyn (P07948 whole entry): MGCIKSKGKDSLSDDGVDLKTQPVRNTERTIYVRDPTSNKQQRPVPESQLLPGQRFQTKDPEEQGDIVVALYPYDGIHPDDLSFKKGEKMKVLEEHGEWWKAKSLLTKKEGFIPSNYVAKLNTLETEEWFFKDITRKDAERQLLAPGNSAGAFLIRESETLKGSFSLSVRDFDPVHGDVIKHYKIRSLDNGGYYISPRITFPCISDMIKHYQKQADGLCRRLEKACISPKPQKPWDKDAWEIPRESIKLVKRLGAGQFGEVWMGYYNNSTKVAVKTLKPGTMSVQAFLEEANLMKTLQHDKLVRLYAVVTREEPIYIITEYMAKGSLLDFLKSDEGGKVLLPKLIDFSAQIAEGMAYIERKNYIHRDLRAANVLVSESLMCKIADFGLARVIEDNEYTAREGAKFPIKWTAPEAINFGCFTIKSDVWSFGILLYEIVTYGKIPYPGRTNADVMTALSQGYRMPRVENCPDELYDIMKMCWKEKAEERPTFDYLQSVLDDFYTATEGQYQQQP
Chain of Serine/threonine-protein kinase pim-1 (P11309 whole entry): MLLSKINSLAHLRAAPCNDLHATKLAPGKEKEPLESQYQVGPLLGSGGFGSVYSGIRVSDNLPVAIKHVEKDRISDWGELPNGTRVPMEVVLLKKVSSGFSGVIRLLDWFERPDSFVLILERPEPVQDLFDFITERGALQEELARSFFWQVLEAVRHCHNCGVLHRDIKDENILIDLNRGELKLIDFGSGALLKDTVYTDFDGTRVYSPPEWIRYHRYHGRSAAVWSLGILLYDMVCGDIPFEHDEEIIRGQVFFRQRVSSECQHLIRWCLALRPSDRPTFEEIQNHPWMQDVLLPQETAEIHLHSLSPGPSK
Chain of Serine/threonine-protein kinase N2 (Q16513 whole entry): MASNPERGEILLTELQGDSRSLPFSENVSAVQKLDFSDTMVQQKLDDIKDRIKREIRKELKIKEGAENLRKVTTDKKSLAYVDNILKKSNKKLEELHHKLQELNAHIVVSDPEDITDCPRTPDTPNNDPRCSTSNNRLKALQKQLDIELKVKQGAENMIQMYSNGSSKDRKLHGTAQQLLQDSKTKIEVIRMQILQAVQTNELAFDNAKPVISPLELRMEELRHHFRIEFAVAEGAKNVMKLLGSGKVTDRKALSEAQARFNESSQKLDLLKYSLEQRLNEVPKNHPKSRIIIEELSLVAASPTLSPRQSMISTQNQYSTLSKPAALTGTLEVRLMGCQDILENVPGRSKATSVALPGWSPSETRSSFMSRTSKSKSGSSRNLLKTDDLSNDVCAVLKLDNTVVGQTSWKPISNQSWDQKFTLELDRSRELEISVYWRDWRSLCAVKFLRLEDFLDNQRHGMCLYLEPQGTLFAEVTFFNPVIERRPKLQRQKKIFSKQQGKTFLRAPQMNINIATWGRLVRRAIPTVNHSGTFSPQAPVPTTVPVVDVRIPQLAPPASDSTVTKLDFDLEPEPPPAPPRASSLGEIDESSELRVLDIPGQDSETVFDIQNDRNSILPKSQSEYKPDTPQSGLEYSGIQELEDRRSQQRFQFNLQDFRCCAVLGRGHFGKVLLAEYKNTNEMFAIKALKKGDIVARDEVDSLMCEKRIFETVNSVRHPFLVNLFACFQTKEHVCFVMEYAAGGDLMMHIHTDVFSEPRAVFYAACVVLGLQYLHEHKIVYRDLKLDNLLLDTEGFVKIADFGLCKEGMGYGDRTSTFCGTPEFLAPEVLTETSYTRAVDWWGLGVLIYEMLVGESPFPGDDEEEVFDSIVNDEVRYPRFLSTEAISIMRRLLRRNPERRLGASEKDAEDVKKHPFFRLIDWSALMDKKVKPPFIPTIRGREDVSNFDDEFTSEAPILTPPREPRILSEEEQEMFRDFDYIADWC

Compound	IC50 [1]	IC50 (Caspase-3)	IC50 [2]	IC50 [3]	Ki [4]	Ki [5]	Ki [6]	Ki [7]	Ki [8]	Ki [9]
O=C(COC(=O)c1ccc([N+](=O)[O-])s1)Nc1cccc(S(=O)(=O)/N=C2/CCCCCN2)c1	4.92 µM (active)	10 µM (active)	4.62 µM (active)	7.08 µM (active)	–	–	–	–	–	–
COc1ccc(C(C[N+](=O)[O-])c2c(C)[nH]n(-c3ccccc3)c2=O)cc1 (centres undefined)	8.32 µM (active)	> 100 µM (inactive)	7.1 µM (active)	7.15 µM (active)	–	–	–	–	–	–
Oc1c2ccccc2c2c3c(cccc13)N=N2 [SP-600125]	–	–	–	–	> 10 µM (inactive)	> 7.94 µM (inactive)	1 µM (active)	0.501 µM (active)	3.16 µM (active)	0.0398 µM (active)
